Reference: ChEMBL document CHEMBL1201862, “PubChem BioAssay data set” (2004)
Active and inactive are the calls of the source.

How the values were obtained:
[1] = CRF-BP/CRF-R2 complex antagonists, dose response, cell-based, uHTS hits, 384-well (AID 651639); format: functional, Homo sapiens; conditions: read-out: IC50_Mean
[2] = biological target: T1, Corticotropin-releasing factor receptor 2/Corticotropin-releasing factor-binding protein (Homo sapiens, UniProt P24387+Q13324); assay: activators of CRF receptor 2 with binding protein – uHTS hits, confirmation (AID 602473); format: functional; conditions: read-out: EC50_Mean
T1 sequence (Q13324 whole entry): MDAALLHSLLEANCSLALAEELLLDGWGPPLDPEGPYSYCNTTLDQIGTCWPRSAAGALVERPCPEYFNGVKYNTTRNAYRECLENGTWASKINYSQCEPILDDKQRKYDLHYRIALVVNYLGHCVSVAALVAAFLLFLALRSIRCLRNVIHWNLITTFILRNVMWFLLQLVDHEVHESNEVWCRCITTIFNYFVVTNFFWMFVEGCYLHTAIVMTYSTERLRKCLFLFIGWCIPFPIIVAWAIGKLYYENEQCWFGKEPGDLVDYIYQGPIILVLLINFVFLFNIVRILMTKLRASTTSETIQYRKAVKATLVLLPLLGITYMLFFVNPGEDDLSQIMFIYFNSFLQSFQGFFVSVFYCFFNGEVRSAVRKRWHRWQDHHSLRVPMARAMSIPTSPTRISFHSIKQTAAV
T1 sequence (P24387 whole entry): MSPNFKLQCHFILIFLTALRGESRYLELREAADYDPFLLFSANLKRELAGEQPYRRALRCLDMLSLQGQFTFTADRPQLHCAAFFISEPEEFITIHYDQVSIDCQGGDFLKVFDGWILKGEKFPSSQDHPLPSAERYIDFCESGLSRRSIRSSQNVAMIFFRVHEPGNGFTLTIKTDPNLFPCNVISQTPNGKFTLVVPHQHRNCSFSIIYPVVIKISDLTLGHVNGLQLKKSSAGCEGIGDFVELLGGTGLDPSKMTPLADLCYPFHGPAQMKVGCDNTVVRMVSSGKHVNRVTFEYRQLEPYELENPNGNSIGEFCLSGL

[3] = cytotoxicity in MIN6 insulinoma cells, dose response, cytotoxicity control, cell-based, mouse insulinoma (AID 2122); format: functional;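 also: confirmatory high-throughput counterscreen run to flag cytotoxic compounds; mouse MIN-6 beta cells carrying an insulin promoter eGFP reporter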
[4] = biological target: T1, Corticotropin-releasing factor receptor 2/Corticotropin-releasing factor-binding protein; assay: Dose Response confirmation of uHTS hits for small molecule antagonists of the CRF-binding protein and CRF-R2 receptor complex.; format: functional; conditions: read-out: IC50_Mean
[5] = insulin promoter down-regulators in MIN6 cells, imaging, high-content screening, mouse beta cells (AID 1628); format: functional
Cytochrome P450 2C19 = Cytochrome P450 2C19 (Homo sapiens, UniProt P33261); assay: Cytochrome panel assay with activity outcomes. Panel member name: p450-cyp2c19 Compounds with AC50 equal or less than 10 uM are considered active; format: functional
Cytochrome P450 3A4 = Cytochrome P450 3A4 (Homo sapiens, UniProt P08684);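 also: CYP3A4 tested as one member of a cytochrome P450 panel screen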
Cytochrome P450 1A2 = biological target: T2, Cytochrome P450 1A2 (Homo sapiens, UniProt P05177);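 also: PubChem cytochrome P450 panel assay, CYP1A2 panel member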
T2 sequence (P05177 whole entry): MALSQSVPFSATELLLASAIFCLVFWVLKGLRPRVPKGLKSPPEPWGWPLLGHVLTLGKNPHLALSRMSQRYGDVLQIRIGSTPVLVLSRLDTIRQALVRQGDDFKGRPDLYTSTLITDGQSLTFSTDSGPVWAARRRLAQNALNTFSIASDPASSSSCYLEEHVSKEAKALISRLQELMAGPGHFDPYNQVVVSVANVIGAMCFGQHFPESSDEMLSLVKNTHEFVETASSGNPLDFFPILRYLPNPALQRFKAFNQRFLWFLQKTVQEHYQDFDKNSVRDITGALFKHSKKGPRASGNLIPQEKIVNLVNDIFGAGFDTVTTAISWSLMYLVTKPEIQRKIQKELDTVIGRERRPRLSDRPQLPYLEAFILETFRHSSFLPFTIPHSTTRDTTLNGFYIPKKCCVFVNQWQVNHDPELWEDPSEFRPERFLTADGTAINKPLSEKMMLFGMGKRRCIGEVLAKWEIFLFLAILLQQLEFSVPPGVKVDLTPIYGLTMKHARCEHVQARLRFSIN

[6] = biological target: Dual specificity tyrosine-phosphorylation-regulated kinase 1A (Rattus norvegicus, UniProt Q63470); format: biochemical, Homo sapiens
[7] = biological target: T3, Long-chain-fatty-acid--AMP ligase FadD28 (Mycobacterium tuberculosis, UniProt P9WQ59); assay: Fluorescence polarization aasay to screen for inhibitors that compete for the binding of FadD28 to a bisubstrate Measured in Biochemical System Using Plate Reader - 2147-01_Inhibitor_Dose_CherryPick_Activity.; format: functional, Mycobacterium tuberculosis H37Rv
T3 sequence (P9WQ59 whole entry): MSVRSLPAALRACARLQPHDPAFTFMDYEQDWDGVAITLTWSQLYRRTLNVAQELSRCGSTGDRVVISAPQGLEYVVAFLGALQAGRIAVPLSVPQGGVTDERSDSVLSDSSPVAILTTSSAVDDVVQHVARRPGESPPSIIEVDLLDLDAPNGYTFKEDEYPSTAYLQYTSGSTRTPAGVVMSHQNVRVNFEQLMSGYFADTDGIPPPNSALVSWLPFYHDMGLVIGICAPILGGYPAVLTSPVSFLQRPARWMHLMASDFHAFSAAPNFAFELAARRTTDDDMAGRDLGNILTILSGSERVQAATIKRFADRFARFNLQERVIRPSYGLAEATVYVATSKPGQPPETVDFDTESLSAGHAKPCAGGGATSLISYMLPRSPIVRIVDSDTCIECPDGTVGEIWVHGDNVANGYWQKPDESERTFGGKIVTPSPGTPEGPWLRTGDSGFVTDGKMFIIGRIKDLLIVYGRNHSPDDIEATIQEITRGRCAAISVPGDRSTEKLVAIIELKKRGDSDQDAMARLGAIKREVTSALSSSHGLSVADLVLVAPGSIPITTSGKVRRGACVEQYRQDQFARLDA

Genome polyprotein = Genome polyprotein (dengue virus type 2, UniProt P29990); assay: Dengue-2 NS5 methyltransferase inhibitors, primary screen, biochemical, confirmation dose response (AID 588689); format: functional
[8] = biological target: Glucose-6-phosphate 1-dehydrogenase (Homo sapiens, UniProt P11413); assay: human G6PD enzyme inhibitors, dose response, selectivity assay for P. falciparum G6PD inhibitor project, biochemical, fluorescence (AID 504792); format: functional
Hexokinase HKDC1 = biological target: T4, Hexokinase HKDC1 (Homo sapiens, UniProt Q2TB90); assay: HKDC1 hexokinase inhibitors, dose response, biochemical, W721R variant (AID 504729); format: functional
T4 sequence (Q2TB90 whole entry): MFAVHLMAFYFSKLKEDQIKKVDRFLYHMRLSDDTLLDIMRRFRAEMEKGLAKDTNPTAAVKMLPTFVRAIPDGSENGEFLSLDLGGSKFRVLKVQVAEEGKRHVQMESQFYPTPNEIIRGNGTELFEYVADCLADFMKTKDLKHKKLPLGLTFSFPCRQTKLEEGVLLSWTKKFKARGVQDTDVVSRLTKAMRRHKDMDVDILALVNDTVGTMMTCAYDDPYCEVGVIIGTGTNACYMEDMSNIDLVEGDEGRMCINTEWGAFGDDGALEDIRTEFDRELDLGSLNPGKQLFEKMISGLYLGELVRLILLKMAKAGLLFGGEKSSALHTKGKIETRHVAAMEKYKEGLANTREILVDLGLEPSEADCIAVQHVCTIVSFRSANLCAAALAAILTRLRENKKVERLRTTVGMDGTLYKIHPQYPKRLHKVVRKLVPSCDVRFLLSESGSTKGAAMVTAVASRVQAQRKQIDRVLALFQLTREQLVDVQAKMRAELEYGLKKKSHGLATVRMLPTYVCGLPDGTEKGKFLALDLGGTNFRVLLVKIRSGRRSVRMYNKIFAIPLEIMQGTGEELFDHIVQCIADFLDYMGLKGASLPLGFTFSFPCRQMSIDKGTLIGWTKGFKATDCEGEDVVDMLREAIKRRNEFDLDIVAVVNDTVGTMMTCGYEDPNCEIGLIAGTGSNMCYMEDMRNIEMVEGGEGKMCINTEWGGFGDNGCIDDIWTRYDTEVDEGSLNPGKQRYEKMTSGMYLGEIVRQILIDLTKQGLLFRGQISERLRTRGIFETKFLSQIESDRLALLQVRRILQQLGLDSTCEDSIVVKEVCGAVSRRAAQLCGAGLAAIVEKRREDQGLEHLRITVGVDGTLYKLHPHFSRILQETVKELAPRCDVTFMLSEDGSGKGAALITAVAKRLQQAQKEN

[9] = biological target: Voltage-gated inwardly rectifying potassium channel KCNH2 (Homo sapiens, UniProt Q12809); conditions: Potency;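 also: confirmatory quantitative high-throughput screen measuring inhibition of hERG channel activity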
[10] = biological target: T5, Mannose-6-phosphate isomerase (Homo sapiens, UniProt P34949); assay: PMI enzyme inhibitors, confirmation, biochemical, fluorescence intensity (AID 1535)
T5 sequence (P34949 whole entry): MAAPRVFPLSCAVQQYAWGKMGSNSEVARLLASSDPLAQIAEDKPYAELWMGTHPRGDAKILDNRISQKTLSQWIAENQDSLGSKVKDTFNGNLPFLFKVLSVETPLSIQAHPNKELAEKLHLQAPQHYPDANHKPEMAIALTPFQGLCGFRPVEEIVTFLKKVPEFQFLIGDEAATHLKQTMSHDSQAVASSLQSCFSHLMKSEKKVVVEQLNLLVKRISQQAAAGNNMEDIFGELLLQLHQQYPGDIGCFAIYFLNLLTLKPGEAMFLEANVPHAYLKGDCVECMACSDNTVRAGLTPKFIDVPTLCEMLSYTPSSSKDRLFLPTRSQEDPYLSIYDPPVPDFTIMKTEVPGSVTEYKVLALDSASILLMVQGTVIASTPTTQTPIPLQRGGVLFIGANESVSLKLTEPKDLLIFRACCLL

Phosphomannomutase 2 = Phosphomannomutase 2 (Homo sapiens, UniProt O15305); assay: Counter screen SAR assay for PMM2 inhibitors via a fluorescence intensity assay. [Related pubchem assays (depositor defined):AID1545, AID1574]
[11] = biological target: T5, Mannose-6-phosphate isomerase; assay: human PMI inhibitors, high substrate, primary screen, biochemical, fluorescence intensity, high mannose 6-phosphate (AID 1220)
Cysteine protease ATG4B = Cysteine protease ATG4B (Homo sapiens, UniProt Q9Y4P1); format: functional;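 also: Fluorescence-based dose-response confirmation assay measuring inhibition of ATG4B activity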
Phospholipase A2 = Phospholipase A2 (Homo sapiens, UniProt P04054); format: functional;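 also: confirmatory dose-response counterscreen on phospholipase A2, testing hits that came from an ultra-high-throughput screen for ATG4B inhibitors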
[12] = biological target: T6, Polyadenylate-binding protein 1 (Homo sapiens, UniProt P11940); assay: PABP1 MLLE–PAM2 binding inhibitor potency, dose response, biochemical, fluorescence polarization, FITC-PAM2 peptide (AID 602259); format: functional; conditions: read-out: IC50_Mean
[13] = biological target: T6, Polyadenylate-binding protein 1; assay: PABP1 MLLE–PAM2 interaction inhibitors, dose response, miRNA deadenylation inhibitor project, biochemical, fluorescence polarization, Cy5-PAM2 peptide, secondary (AID 602260); format: functional; conditions: read-out: IC50_Mean

Chain of Glucose-6-phosphate 1-dehydrogenase (P11413 whole entry): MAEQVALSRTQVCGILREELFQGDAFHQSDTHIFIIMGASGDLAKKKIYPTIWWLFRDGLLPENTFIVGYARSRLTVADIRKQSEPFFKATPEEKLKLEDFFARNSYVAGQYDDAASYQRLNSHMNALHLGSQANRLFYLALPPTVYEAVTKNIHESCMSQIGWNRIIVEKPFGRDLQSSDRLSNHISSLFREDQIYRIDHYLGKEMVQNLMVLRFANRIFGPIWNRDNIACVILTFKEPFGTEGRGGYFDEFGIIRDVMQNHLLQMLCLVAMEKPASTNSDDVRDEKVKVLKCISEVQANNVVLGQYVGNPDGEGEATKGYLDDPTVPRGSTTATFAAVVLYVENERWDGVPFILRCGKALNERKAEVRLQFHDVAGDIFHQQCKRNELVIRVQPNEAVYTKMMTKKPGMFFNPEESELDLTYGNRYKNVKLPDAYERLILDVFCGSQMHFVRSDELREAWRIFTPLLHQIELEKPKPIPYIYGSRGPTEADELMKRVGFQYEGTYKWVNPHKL
T6 sequence (P11940 whole entry): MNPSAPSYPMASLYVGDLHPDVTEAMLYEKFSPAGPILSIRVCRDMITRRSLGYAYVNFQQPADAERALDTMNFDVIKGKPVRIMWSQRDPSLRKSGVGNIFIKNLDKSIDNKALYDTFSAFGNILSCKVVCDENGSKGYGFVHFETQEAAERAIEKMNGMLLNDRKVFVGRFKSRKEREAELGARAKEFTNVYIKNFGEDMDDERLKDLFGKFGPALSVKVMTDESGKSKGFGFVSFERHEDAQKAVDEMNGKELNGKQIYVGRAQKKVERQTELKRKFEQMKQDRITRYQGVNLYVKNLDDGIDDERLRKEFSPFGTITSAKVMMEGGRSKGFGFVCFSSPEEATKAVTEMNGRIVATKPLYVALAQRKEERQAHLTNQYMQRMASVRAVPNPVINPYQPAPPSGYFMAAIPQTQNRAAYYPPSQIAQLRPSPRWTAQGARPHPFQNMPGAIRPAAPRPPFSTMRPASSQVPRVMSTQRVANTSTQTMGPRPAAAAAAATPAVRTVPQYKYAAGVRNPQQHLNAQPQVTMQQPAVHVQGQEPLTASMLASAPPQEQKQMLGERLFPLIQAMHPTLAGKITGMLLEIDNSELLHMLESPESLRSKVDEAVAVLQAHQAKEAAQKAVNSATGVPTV
Chain of Phosphomannomutase 2 (O15305 whole entry): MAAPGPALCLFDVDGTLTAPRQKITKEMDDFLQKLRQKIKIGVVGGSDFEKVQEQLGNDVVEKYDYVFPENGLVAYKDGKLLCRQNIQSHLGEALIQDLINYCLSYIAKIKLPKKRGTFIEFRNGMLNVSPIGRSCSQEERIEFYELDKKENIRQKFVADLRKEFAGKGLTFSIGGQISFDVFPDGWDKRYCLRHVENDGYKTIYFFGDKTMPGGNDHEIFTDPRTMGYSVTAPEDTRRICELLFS
Chain of Cysteine protease ATG4B (Q9Y4P1 whole entry): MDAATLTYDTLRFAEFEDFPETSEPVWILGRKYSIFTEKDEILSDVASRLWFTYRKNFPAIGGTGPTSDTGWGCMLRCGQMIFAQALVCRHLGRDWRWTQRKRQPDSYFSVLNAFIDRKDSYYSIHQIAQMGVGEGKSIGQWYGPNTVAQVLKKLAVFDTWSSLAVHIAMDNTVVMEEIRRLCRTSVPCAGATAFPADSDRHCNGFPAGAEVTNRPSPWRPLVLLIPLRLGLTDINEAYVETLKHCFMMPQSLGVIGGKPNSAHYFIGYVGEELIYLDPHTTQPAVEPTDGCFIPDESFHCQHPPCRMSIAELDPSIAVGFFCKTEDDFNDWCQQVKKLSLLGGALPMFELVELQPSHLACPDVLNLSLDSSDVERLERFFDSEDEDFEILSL
Chain of Cytochrome P450 3A4 (P08684 whole entry): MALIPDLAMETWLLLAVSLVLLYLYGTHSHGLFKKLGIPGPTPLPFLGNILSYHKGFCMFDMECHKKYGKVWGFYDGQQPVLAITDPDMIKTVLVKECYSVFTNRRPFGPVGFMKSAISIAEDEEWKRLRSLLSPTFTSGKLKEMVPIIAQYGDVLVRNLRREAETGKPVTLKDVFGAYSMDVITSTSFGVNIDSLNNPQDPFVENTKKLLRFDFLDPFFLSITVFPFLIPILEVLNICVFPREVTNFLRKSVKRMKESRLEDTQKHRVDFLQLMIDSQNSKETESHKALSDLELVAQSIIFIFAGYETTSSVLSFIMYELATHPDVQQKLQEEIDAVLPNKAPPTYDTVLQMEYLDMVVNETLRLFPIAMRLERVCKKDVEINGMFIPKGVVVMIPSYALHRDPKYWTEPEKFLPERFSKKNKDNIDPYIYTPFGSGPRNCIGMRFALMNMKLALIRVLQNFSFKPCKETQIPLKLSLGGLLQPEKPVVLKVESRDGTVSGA
Chain of Phospholipase A2 (P04054 whole entry): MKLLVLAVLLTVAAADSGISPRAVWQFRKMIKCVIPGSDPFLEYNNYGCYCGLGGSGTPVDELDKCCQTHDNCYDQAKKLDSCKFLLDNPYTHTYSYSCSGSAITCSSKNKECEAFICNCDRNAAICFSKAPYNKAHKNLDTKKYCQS
Chain of Cytochrome P450 2C19 (P33261 whole entry): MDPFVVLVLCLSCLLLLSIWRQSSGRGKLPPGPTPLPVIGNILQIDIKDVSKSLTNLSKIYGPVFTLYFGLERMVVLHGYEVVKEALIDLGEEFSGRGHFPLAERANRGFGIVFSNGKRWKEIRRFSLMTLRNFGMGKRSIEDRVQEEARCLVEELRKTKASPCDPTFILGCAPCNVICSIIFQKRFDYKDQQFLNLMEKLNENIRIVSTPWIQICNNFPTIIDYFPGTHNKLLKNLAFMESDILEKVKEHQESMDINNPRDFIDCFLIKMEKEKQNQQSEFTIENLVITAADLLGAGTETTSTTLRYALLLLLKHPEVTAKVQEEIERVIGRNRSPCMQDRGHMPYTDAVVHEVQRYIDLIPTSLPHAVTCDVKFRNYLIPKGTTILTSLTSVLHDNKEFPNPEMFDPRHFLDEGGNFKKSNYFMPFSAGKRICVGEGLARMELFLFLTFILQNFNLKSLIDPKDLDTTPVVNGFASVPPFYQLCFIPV
Chain of Genome polyprotein (P29990 2492-3391 limits assumed): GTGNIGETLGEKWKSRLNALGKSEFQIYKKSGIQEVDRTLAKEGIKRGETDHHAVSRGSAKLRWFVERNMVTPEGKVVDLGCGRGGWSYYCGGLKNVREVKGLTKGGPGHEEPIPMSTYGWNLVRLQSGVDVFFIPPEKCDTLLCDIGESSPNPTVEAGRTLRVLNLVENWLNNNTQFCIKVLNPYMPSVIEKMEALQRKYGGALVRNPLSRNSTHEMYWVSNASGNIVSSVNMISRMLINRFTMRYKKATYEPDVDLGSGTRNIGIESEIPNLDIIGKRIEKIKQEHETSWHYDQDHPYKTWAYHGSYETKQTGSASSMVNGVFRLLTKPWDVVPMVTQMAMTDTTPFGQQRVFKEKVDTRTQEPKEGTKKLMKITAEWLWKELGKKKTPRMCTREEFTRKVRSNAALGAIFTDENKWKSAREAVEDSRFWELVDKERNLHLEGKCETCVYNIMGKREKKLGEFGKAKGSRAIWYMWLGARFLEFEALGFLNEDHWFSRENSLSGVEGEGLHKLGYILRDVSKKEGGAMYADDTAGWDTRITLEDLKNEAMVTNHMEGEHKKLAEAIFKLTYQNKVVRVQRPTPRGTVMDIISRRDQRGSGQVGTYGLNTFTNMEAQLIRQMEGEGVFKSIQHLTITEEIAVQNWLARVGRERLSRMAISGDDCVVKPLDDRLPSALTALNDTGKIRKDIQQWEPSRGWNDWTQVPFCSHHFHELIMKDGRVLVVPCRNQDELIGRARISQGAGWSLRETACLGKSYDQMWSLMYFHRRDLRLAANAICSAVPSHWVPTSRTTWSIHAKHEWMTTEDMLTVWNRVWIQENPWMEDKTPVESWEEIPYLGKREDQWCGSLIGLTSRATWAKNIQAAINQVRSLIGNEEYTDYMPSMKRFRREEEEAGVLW
Chain of Voltage-gated inwardly rectifying potassium channel KCNH2 (Q12809 whole entry): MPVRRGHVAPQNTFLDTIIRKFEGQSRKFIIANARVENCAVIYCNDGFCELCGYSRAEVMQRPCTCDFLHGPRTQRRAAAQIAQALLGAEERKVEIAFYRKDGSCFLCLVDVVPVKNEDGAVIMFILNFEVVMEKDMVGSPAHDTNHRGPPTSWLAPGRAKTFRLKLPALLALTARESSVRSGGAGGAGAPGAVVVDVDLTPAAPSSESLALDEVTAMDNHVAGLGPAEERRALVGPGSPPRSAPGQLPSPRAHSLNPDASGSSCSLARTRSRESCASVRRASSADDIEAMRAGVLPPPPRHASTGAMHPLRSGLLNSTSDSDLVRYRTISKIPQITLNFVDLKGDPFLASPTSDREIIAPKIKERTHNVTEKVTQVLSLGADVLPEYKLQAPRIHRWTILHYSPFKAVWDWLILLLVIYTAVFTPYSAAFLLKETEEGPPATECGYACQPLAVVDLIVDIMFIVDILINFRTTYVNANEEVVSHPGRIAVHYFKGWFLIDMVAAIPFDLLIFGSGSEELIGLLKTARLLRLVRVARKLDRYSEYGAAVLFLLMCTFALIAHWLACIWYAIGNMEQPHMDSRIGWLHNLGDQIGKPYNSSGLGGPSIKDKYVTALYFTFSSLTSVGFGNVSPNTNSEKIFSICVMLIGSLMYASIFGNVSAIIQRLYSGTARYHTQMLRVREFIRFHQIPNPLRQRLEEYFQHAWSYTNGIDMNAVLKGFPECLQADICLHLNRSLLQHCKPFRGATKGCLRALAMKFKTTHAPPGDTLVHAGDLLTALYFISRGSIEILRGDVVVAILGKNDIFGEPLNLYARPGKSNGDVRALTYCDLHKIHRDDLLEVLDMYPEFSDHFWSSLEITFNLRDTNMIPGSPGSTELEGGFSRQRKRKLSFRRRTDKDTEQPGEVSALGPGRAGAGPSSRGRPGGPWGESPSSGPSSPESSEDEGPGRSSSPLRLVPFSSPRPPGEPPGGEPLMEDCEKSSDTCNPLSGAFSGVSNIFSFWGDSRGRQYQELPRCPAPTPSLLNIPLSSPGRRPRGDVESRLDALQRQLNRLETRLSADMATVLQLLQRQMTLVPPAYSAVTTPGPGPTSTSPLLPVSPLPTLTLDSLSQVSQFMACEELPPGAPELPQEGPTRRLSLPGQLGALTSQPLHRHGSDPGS

Which IC50 [1] does the source give for `c1ccc2c(c1)OCCOCCOCCOCCOCCOc1ccccc1OCCOCCOCCO2` here?
Its IC50 is 10.4 µM (active).

What about the EC50 [2] of the same compound?
The EC50 was 12.5 µM (active).

What about the IC50 [3] of the same compound?
Its IC50 is 5.48 µM (active).

And the IC50 [4]?
The IC50 was 2.76 µM (active).

What about the IC50 [5] of the same compound?
The IC50 was 2.89 µM (active).

With `c1cncc(-c2cccnc2)c1` as the compound, how does the AC50 (Cytochrome P450 2C19) read?
The AC50 was “inconclusive”.

What about the AC50 (Cytochrome P450 3A4) of the same compound?
The AC50 was “inconclusive”.

What about the AC50 (Cytochrome P450 1A2) of the same compound?
The AC50 was 15.8 µM (inconclusive).

For `COc1ccc(OC)c(-c2csc(NC(=O)c3ccc(OCC4CCCO4)cc3)n2)c1` (centres undefined), which IC50 [3] is on record?
Its IC50 is 2.19 µM (active).

What about the IC50 [5] of the same compound?
The IC50 was 2.4 µM (active).

Which AC50 [6] does the source give for `COc1ccc2c3c([nH]c2c1)C(C)N(CCC(=O)NN)CC3` (centres undefined) here?
The AC50 was 1.45 µM (active).

With `Nc1ccc(S(=O)(=O)c2cc(O)c3ccccc3c2O)cc1` as the compound, how does the AC50 [7] read?
Its AC50 is > 100 µM (inactive).

What about the IC50 (Genome polyprotein) of the same compound?
Its IC50 is 5.47 µM (active).

What about the IC50 [8] of the same compound?
The IC50 was > 80 µM (inactive).

What about the IC50 (Hexokinase HKDC1) of the same compound?
Its IC50 is 18.1 µM (active).

Which AC50 [9] does the source give for `CCc1ccc(C(c2ccc(CC)cc2)C(Cl)Cl)cc1` here?
Its AC50 is 22.4 µM (inconclusive).

For `Cc1cc(-n2sc3ccccc3c2=O)c2ccccc2n1`, which IC50 [10] is on record?
Its IC50 is > 50 µM (inactive).

What about the IC50 (Phosphomannomutase 2) of the same compound?
Its IC50 is > 100 µM (inactive).

With `COc1ccc(-n2c(=S)[nH]c3c(sc(=S)n3-c3ccccc3)c2=O)c(OC)c1` as the compound, how does the IC50 [8] read?
Its IC50 is > 80 µM (inactive).

And the IC50 [11]?
The IC50 was 37.6 µM (active).

For `O=c1c2ccccc2nc(/C=C/c2ccc(O)cc2)n1CCc1ccccc1`, which IC50 (Cysteine protease ATG4B) is on record?
The IC50 was 17.2 µM (active).

What about the IC50 (Phospholipase A2) of the same compound?
Its IC50 is 12.2 µM (active).

For `Cc1ccc(-n2c(SCC(=O)N/N=C/c3c(C)nn(-c4ccccc4)c3C)nc3ccccc3c2=O)cc1`, which IC50 [12] is on record?
Its IC50 is > 66 µM (inactive).

And the IC50 (Cysteine protease ATG4B)?
The IC50 was 14.2 µM (active).

And the IC50 (Phospholipase A2)?
Its IC50 is 1.86 µM (active).

What about the IC50 [13] of the same compound?
Its IC50 is > 66 µM (inactive).

What does the source list for `Clc1ccc(/N=c2\ssnc2Cl)cc1Cl`?
IC50 [10]: 16.9 µM (active); IC50 (Phosphomannomutase 2): 88.6 µM (active)

For `COc1ccccc1C(=O)N1CCN(c2ccccn2)CC1`, which AC50 (Cytochrome P450 3A4) is on record?
The AC50 was “inconclusive”.
